Measurements as given in article PMC7004148, “Flexible Fragment Growing Boosts Potency of Quorum‐Sensing Inhibitors against Pseudomonas aeruginosa Virulence” (Chemmedchem, 2019).
Several values for one entry are separate records, joined by “and”; a condition that tells them apart may be missing. Identical values can stand only once. Like-named read-outs stand apart in the source and are kept apart here.

How the values were obtained:
PqsR [1] = target: T1, PqsR (Pseudomonas aeruginosa, UniProt Q9I4X0); test: biochemical; format: binding; parameters: H6SUMOPqsRc87 and T265A mutant H6SUMOPqsRc87 for ITC studies was expressed; made in house; host or cells: E. coli BL21 (λDE3)
Method: 3.2 Expression and Purification of H6SUMOPqsRc87
(§1) H6SUMOPqsRc87 and T265A mutant H6SUMOPqsRc87 for ITC studies was expressed and purified as previously reported.[8,9] Briefly, E. coli BL21 (λDE3) transfected with the pSUMO3_ck4_pqsRC87 or pSUMO3_ck4_T265ApqsRC87 plasmid[8] were grown in LB medium containing 50 µg mL-1 kanamycin at 37 °C to an OD600 of approximately 0.8 and expression was induced with 0.2 mM IPTG for 16 h at 16 °C. The protein was purified using nickel affinity chromatography in a one step gradient.
ITC titrations were performed as described before.[8,9] Briefly, ITC experiments were carried out using an ITC200 instrument (Microcal Inc., GE Healthcare). The titrations were performed on 50-150 µM H6SUMO-PqsRC87 in the 200 µL sample cell using 19 injections of 2 µL ligand solution (0.5-1.5 mM) every 180 s. The data were collected and the area under each peak was integrated. To correct for heats of dilution and mixing the final base line consisting of small peaks of the same size at the end of the titration were substracted.
Target sequence in this assay (Q9I4X0 87-332): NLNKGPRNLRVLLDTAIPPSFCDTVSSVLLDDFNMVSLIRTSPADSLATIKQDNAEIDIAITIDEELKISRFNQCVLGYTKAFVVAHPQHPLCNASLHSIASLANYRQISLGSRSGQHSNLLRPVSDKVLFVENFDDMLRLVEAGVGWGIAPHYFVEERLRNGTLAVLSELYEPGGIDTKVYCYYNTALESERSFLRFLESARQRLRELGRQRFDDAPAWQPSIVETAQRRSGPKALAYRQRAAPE

PqsR [2] = target: T1, PqsR; test: PqsR β-galactosidase reporter gene assay in E. coli; format: cell-based; parameters: expressed in transfected cells; host or cells: E. coli DH5α carrying plasmid pEAL08-2; settings: in the presence of 50 nM PQS; for IC50 (inverse agonistic/antagonistic activity): n.i.=no inhibition (activity≤15 %)
Method: 5. E. coli reporter-gene assay & dose-response curves
PqsR Reporter gene assay in E. coli. The inverse agonistic/antagonistic activity of potential PqsR ligands was evaluated in a β-galactosidase reporter gene assay in E. coli as previously described.[26] In short, test compounds were co-incubated with E. coli DH5α cells containing the plasmid pEAL08-2,[27] which expresses PqsR and the β-galactosidase LacZ under the control of the pqsA promoter. The inverse agonistic/antagonistic activity of compounds was measured in the presence of 50 nM PQS. After incubation, galactosidase activity was quantified photometrically and expressed as ratio of controls. The given IC50 values represent the mean of at least two independent experiments using at least eight different concentrations of test compound with n = 4. Non-linear regression analysis was done using the log (inhibitor) vs response model included in the GrapPad Prism 5.0 software package.
Target sequence in this assay (Q9I4X0 whole entry): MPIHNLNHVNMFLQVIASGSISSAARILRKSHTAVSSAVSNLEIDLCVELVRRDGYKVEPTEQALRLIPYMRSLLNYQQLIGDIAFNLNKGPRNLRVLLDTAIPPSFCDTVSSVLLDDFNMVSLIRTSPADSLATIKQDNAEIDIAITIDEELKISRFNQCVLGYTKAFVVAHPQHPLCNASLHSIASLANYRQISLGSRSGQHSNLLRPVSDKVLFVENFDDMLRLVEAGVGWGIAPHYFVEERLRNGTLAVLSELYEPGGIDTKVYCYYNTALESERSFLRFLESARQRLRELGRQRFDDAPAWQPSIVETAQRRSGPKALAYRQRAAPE

[3] = tested on: pyocyanin in P. aeruginosa PA14; test: Pyocyanin assay in P. aeruginosa PA14 cultures; format: cell-based, Pseudomonas aeruginosa PA14; settings: for IC50: mean of at least two independent experiments, SD<25 %
Method: 6. Effects in P. aeruginosa
Pyocyanin Assay. The inhibition of virulence factor pyocyanin was measured as described previously[26] following a procedure established by Essar et al.[28] Briefly, Pseudomonas aeruginosa PA14 cultures were grown in the presence of inhibitors or DMSO as control for 16 h. Pyocyanin was determined photometrically after extraction of the cultures with chloroform and re-extraction with 0.2 M HCl. Protonated red colored pyocyanin was determined by measuring OD520 and normalizing to OD600. None of the compound impaired bacterial viability as observed by the OD600 parameter. Inhibition values were expressed in relation to the DMSO control. Each value is the mean of at least two independent experiments with n=3.
The given IC50 values represent the mean of at least two experiments using at least five different concentrations. Curve fitting was performed using the log (inhibitor) vs response model with constrained bottom = 0 and top =100 (GraphPad Prism 5.0).
Figure S4: Inhibition of virulence factor pyocyanin was evaluated in the clinical isolate PA14.
Representative dose-response curves a) compound 11 b) compound 20. Black dotes (•) represent the reduction of pyocyanin in presents of a given compound concentration relative to DMSO control (= 0 %). The continuous black line is the none -linear regression analysis to […]
(1 picture or pasted object on this page, not shown here)

[4] = tested on: HHQ levels in PA14pqsH strain; test: HHQ quantification in PA14pqsH cultures (UHPLC-MS/MS); format: cell-based; settings: Pseudomonas aeruginosa, read-out: HHQ inhibition
Method: (§2) determine IC50 values using a log (inhibitor) vs. response model with constrains (bottom = 0; top =100) (Graph Pad Prism 5.04).
(§3) HHQ and HQNO Quantification. Extracellular HHQ and HQNO were measured as previously reported[29] following a modified procedure of Lépine et al.:[30] Briefly, P. aeruginosa PA14pqsH cultures were grown in the presence of DMSO as a control or DMSO solutions of inhibitors for 17 h. HHQ and HQNO were quantified from ethyl acetate extracts using 5,6,7,8-tetradeutero-2-heptyl-4(1H)-quinolone (HHQ-d4) as internal standard (IS).
(§4) UHPLC-MS/MS analysis was performed as described in detail by Storz et al.[31] The following ions were monitored (mother ion [m/z], product ion [m/z], scan time [s], scan width [m/z], […]
(§5) quantification was performed using Xcalibur software with the use of a calibration curve relative to the area of the IS. Given data represent the mean of at least two independent experiments with n=3 and were expressed as percentage inhibition relative to DMSO control.

PqsRT265A = target: T2, PqsRT265A (Pseudomonas aeruginosa, UniProt Q9I4X0, T265A); test: ITC thermodynamic signature, PqsRwt versus PqsRT265A mutant; format: binding; settings: comparison of thermodynamic signatures (SI, Figure S3)
T2 construct: H6SUMOPqsRc87 and T265A mutant H6SUMOPqsRc87 for ITC studies was expressed; made in house; host or cells: E. coli BL21 (λDE3)
T2 sequence (Q9I4X0 87-332 T265A): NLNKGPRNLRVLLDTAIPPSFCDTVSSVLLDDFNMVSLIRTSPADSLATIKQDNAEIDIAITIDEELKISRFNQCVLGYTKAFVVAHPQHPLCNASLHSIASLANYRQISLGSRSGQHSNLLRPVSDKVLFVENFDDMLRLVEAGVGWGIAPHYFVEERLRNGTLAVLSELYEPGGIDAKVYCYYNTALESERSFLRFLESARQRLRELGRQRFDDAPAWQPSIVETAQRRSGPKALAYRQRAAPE
Method: 3. Isothermal Titration Calorimetry
3.1 Site-directed Mutagenesis: PqsRT265A mutant
The plasmid pSUMO3_ck4_T265ApqsRC87 was generated as previously described[8] using QuikChange Site-Directed Mutagenesis Kit (Stratagene) following the manufacturer’s instructions. The following primer were used: forward 5'
3. PCR condition to amplify the T265A gene: 16 cycles with 35s denaturation at 95 °C, 60 s annealing at 55 ° C, and 13 min extension. The generated plasmid was transformed via electroporation into E. coli BL21 3.2 Expression and Purification of H6SUMOPqsRc87
as §1
ITC titrations were performed as described before.[8,9] Briefly, ITC experiments were carried out using an ITC200 instrument (Microcal Inc., GE Healthcare). The titrations were performed on 50-150 µM H6SUMO-PqsRC87 in the 200 µL sample cell using 19 injections of 2 µL ligand solution (0.5-1.5 mM) every 180 s. […]

[5] = tested on: HQNO levels in PA14pqsH strain; test: HQNO quantification in PA14pqsH cultures (UHPLC-MS/MS); format: cell-based; settings: Pseudomonas aeruginosa, read-out: HQNO inhibition
Method: as §2, §3, §4, §5

[6] = Table 1, EE=−ΔH/(heavy atom count)
[7] = Table 1, LE=−ΔG/(heavy atom count)

| SMILES | Kd (PqsR [1]) | EE (PqsR [1]; [6]) | ΔG (PqsR [1]; Table 1, ITC at 298 K) | ΔH (PqsR [1]; Table 1, ITC at 298 K) | −TΔS (PqsR [1]; Table 1, ITC at 298 K) | LE (PqsR [1]; [7]) | other results |
| --- | --- | --- | --- | --- | --- | --- | --- |
| CC(C)(C)c1ccc(C(=O)NO)cc1 [Compound 1] | 4.1 ± 0.6 µM | 0.63 kcal/mol | -7.4 ± 0.1 kcal/mol | -8.9 ± 0.2 kcal/mol | 1.5 ± 0.3 kcal/mol | 0.53 kcal/mol | – |
| Nc1nnc(-c2cccc(C(F)(F)F)c2)o1 [Compound 2] | 1.3 ± 0.3 µM | 0.53 kcal/mol | -8.0 ± 0.1 kcal/mol | -8.5 ± 0.5 kcal/mol | 0.4 ± 0.6 kcal/mol | 0.50 kcal/mol | – |
| Nc1cccc(Br)n1 [Compound 3] | 10 ± 1.3 µM | 1.17 kcal/mol | -6.8 ± 0.1 kcal/mol | -9.3 ± 0.4 kcal/mol | 2.5 ± 0.4 kcal/mol | 0.85 kcal/mol | IC50 (inverse agonistic/antagonistic activity) (PqsR [2]): did not show significant antagonistic activity |
| Nc1ccc(Br)cn1 [Compound 4] | > 50 µM | – | – | – | – | – | – |
| Nc1cc(Br)ccn1 [Compound 5] | 21.3 ± 3.4 µM | 0.72 kcal/mol | -6.4 ± 0.1 kcal/mol | -5.8 ± 0.1 kcal/mol | -0.6 ± 0.2 kcal/mol | 0.80 kcal/mol | – |
| Nc1ncccc1Br [Compound 6] | > 50 µM | – | – | – | – | – | – |
| Nc1cccc(C(F)(F)F)n1 [Compound 7] | 3.1 ± 0.5 µM | 1.05 kcal/mol | -7.5 ± 0.1 kcal/mol | -11.5 kcal/mol and -11.5 ± 0.9 kcal/mol | 3.7 ± 1 kcal/mol | 0.70 kcal/mol | inhibition at 250 µM ([3]; Pseudomonas aeruginosa, PA14, read-out: Pyocyanin inhibition): 43% |
| CC(=O)Nc1cccc(C(F)(F)F)n1 [Compound 8] | – | – | – | – | – | – | K D (ITC) (PqsR [1]; Table 1, ITC at 298 K, mean±SD, at least two independent experiments, >50 = no heat release detectable at solubility maximum): abolished the affinity; IC50 (inverse agonistic/antagonistic activity) (PqsR [2]): n.i. |
| Nc1cc(C#CC2CC2)cc(C(F)(F)F)n1 [Compound 9] | 7.5 ± 0.1 µM | – | – | – | – | – | -TΔS (PqsR [1]; Table S1): -3.8 ± 0.6 kcal/mol; ΔG (PqsR [1]; Table S1): -6.9 ± 0.0 kcal/mol; ΔH (PqsR [1]; Table S1): -3.7 ± 0.6 kcal/mol and -3.7 kcal/mol; EE (PqsR [1]; Table S1, enthalpic efficiency): 0.23 kcal/mol; LE (PqsR [1]; Table S1, ligand efficiency): 0.43 kcal/mol; IC50 (inverse agonistic/antagonistic activity) (PqsR [2]): n.i. |
| Nc1cc(-c2ccc(F)cc2)cc(C(F)(F)F)n1 [Compound 10] | – | – | – | – | – | – | Inverse agonistic/antagonistic activity at a given concentration (PqsR [2]; @ 100 μM): 29 % @ 100 μM |
| Nc1cc(NCc2ccc(F)cc2)cc(C(F)(F)F)n1 [Compound 11] | 0.6 ± 0.2 µM | – | – | – | – | – | IC50 ([3]; Pseudomonas aeruginosa, PA14, read-out: Pyocyanin IC50, PA14 cultures, photometric quantification): 105 ± 13 µM; IC50 ([3]; read-out: Pyocyanin IC50, PA14 cultures, photometric quantification): 102 µM; inhibition at 200 µM [4]: 48 ± 4%; Enthalpic contribution, PqsRwt versus PqsRT265A (PqsRT265A): no significant difference in the enthalpic contribution; -TΔS (PqsR [1]; Table S1): 1.0 ± 0.8 kcal/mol; ΔG (PqsR [1]; Table S1): -8.4 ± 0.2 kcal/mol; ΔH (PqsR [1]; Table S1): -9.8 ± 0.8 kcal/mol; EE (PqsR [1]; Table S1, enthalpic efficiency): 0.49 kcal/mol; LE (PqsR [1]; Table S1, ligand efficiency): 0.42 kcal/mol; inhibition at 200 µM [5]: 36 ± 3% |
